Measurements as given in patent US9346769B2, “Tetrazolones as inhibitors of fatty acid synthase” (Infinity Pharmaceuticals, Inc., priority 2010, dated 2016).

Target: T1, human FASN (Homo sapiens, UniProt P49327)
T1 construct: was purified from SKBR3 cells using procedures modified from those in Jayakumar et al; endogenous in cells; host or cells: SKBR3 human breast cancer cells (ATCC); Endogenous enzyme purified by ammonium sulfate precipitation and a mono Q column
Experiment: FASN NADPH Consumption Assay
Format: biochemical
Conditions: human FASN purified from SKBR3 cells; starred symbols
Outline: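 Native human FASN purified from SKBR3 cells (60 nM final) preincubated 30 min at 37 °C with compound (2.4 nM–40 μM, 4% DMSO) in pH 7.0 phosphate buffer with 5 mM DTT. Reaction started with 0.2 mM NADPH, 50 μM butyryl-CoA, 0.5 mM malonyl-CoA; NADPH consumption followed kinetically by fluorescence (ex 340/em 460 nm); IC50 from logistic fit.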

T1 sequence (P49327 whole entry): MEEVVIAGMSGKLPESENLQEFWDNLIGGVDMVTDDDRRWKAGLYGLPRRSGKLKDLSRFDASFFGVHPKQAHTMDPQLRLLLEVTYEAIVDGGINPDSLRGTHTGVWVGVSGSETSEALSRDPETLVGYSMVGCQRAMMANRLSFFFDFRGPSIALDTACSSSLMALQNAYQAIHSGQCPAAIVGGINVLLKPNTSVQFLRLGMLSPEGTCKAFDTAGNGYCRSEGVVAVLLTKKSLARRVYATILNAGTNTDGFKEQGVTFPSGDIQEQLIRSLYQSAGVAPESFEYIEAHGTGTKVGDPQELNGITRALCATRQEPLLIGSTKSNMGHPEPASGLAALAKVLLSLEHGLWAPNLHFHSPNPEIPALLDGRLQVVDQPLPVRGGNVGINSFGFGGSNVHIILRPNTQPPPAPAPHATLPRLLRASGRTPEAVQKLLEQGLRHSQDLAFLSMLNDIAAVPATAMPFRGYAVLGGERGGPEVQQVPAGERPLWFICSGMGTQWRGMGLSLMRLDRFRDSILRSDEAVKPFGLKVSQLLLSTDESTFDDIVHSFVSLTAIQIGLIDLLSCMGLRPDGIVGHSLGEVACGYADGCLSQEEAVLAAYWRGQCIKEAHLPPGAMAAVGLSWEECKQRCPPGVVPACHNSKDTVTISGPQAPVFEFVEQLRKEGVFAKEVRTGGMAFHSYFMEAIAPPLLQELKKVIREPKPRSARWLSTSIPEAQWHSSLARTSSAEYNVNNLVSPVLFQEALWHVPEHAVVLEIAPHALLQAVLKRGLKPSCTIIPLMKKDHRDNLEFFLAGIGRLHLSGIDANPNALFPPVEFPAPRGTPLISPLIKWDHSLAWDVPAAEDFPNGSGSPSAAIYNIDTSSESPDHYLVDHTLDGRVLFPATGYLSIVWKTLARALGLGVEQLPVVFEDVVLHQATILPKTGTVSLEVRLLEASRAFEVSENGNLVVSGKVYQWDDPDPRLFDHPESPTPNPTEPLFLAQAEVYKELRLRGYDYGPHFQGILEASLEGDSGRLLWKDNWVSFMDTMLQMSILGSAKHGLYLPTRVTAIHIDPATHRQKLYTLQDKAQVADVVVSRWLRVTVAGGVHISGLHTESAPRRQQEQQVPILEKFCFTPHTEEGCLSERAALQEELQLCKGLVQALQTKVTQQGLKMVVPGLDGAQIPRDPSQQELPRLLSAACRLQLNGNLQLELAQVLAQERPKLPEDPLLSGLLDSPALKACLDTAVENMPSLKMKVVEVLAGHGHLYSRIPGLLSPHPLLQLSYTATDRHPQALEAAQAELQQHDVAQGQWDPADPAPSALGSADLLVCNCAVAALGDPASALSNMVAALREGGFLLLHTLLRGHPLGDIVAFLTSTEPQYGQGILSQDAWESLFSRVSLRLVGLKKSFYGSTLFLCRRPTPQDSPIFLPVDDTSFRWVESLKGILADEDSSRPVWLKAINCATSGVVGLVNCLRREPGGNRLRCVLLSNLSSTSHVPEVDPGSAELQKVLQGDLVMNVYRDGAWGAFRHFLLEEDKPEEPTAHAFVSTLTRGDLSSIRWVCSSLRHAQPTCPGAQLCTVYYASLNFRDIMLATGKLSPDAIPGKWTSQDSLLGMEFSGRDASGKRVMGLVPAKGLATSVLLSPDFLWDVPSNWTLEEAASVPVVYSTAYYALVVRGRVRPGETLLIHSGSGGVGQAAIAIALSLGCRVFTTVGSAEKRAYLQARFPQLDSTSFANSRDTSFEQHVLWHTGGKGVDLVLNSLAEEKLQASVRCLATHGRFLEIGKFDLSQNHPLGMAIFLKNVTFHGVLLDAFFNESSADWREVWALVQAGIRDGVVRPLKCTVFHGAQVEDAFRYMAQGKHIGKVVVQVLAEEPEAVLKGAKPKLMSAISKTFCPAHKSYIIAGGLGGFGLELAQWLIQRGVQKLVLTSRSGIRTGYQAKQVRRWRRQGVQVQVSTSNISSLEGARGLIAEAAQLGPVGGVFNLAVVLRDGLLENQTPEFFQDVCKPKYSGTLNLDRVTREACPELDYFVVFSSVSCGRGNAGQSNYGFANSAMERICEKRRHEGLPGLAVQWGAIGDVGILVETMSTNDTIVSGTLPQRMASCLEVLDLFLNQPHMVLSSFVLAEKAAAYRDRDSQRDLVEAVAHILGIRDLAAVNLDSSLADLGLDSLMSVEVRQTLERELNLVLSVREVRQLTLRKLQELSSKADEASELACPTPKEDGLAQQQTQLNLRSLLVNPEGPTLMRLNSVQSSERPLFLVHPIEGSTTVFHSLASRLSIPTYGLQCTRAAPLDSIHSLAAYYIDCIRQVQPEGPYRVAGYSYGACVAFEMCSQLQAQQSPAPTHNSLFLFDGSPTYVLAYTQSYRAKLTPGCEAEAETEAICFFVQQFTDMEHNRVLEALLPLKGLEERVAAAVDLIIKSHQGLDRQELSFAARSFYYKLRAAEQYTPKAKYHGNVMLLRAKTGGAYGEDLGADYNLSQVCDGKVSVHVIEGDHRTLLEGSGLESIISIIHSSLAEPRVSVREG

Row | SMILES | IC50 [nM]
1 | CCN(C(=O)n1nnn(-c2ccccc2-c2ccccc2)c1=O)c1ccccc1F | 60 to 250
2 | CC(C)(C)OC(=O)N(C(=O)n1nnn(-c2c(F)cccc2F)c1=O)c1ccco1 | 1000 to 10000
3 | O=C(N1CCCC2CCCCC21)n1nnn(-c2c(Cl)cccc2Cl)c1=O (stereo not shown) | 250 to 1000
4 | CC(C)(C)OC(=O)Nc1ccc2c(c1)CCCN2C(=O)n1nnn(-c2c(F)cccc2F)c1=O | 60 to 250
5 | CN(C)N(C(=O)n1nnn(-c2cccc(Cl)c2)c1=O)C1=CCCCC1 | 1000 to 10000
6 | CCN(C(=O)n1nnn(-c2c(Cl)cccc2Cl)c1=O)c1ccc(Cl)c(C(=O)OCc2ccccc2)c1 | 60 to 250
7 | O=C(C1CCCN(C(=O)n2nnn(-c3c(Cl)cccc3Cl)c2=O)C1)N1CCCCC1 (stereo not shown) | 1000 to 10000
8 | CCN(C(=O)n1nnn(-c2c(F)cccc2F)c1=O)c1ccc(N(S(C)(=O)=O)S(C)(=O)=O)cc1F | < 60
9 | CCN(C(=O)n1nnn(-c2c(F)cccc2F)c1=O)C1CCCCC1 | 250 to 1000
10 | CN(C(=O)n1nnn(-c2c(F)cccc2F)c1=O)c1ccc(F)cc1 | 60 to 250
11 | CCN(C(=O)n1nnn(-c2c(F)cccc2F)c1=O)c1c(F)cccc1Cl | 60 to 250
12 | CN(C(=O)n1nnn(-c2ccccc2F)c1=O)c1ccccc1 | 250 to 1000
13 | CCN(C(=O)n1nnn(-c2c(Cl)cccc2Cl)c1=O)c1ccc(C(=O)OCc2ccc(OC)cc2)c(Cl)c1 | 60 to 250
14 | CCN(C(=O)n1nnn(-c2c(Cl)cccc2Cl)c1=O)c1ccc(C(=O)OCc2ccccc2)c(Cl)c1 | 60 to 250
15 | COC(=O)C1CCc2ccccc2N1C(=O)n1nnn(-c2c(F)cccc2F)c1=O (stereo not shown) | 60 to 250
16 | CCN(C(=O)n1nnn(-c2ccc([N+](=O)[O-])cc2Cl)c1=O)C1CCCCC1 | > 10000
17 | CCN(C)C(=O)n1nnn(-c2ccccc2Cl)c1=O | > 10000
18 | CCN(C(=O)n1nnn(-c2c(Cl)cccc2Cl)c1=O)C1CCN(C)CC1 | > 10000
19 | CCNC(=O)NC1CCCN(C(=O)n2nnn(-c3c(Cl)cccc3Cl)c2=O)C1 (stereo not shown) | > 10000
20 | CCN(C(=O)n1nnn(-c2c(F)cccc2F)c1=O)c1ccccc1 | < 60
21 | CCN(C(=O)n1nnn(-c2c(Cl)cccc2Cl)c1=O)C1CCCC(C(=O)O)C1 (stereo not shown) | 1000 to 10000
22 | CC(C)(C)OC(=O)N[C@H]1CCN(C(=O)n2nnn(-c3c(Cl)cccc3Cl)c2=O)C1 | > 10000
23 | CCN(C(=O)n1nnn(-c2c(F)cc(F)cc2Br)c1=O)c1ccccc1 | 60 to 250
24 | CCN(C(=O)n1nnn(-c2c(Cl)cccc2Cl)c1=O)c1ccc(C(=O)OCc2ccc(OC)cc2)cc1Cl | 60 to 250

Row | SMILES | IC50 [nM]
25 | CNC(=O)[C@@H]1CCCN1C(=O)n1nnn(-c2c(Cl)cccc2Cl)c1=O | > 10000
26 | CCN(C(=O)n1nnn(-c2ccc(OC)cc2)c1=O)C1CCCCC1 | > 10000
27 | CCN(C(=O)n1nnn(-c2c(F)cccc2F)c1=O)c1ccc([N+](=O)[O-])cc1 | 60 to 250
28 | CN(C(=O)n1nnn(-c2ccccc2Cl)c1=O)c1ccccn1 | 1000 to 10000
29 | CN(C(=O)n1nnn(-c2ccccc2Br)c1=O)c1ccccc1 | 250 to 1000
30 | CCN(C(=O)n1nnn(-c2ccccc2Cl)c1=O)c1ccccc1 | 60 to 250
31 | CCN(C(=O)n1nnn(-c2cccc(F)c2)c1=O)C1CCCCC1 | > 10000
32 | CCN(C(=O)n1nnn(-c2c(C)cccc2Cl)c1=O)C1CCCCC1 | 1000 to 10000
33 | CCCCCCN(C(=O)n1nnn(-c2ccccc2OC)c1=O)c1cc(C(=O)OCc2ccccc2)ccc1OC | 1000 to 10000
34 | O=CNc1cccc2c1CCCN2C(=O)n1nnn(-c2c(F)cccc2F)c1=O | 60 to 250
35 | Cc1ccccc1C#Cc1cccc(F)c1-n1nnn(C(=O)N2CCCCc3ccccc32)c1=O | 60 to 250
36 | CCN(C(=O)n1nnn(-c2c(F)cccc2F)c1=O)c1ccc(C#Cc2ccccc2)cc1F | 60 to 250
37 | CCN(C(=O)n1nnn(-c2ccccc2OC)c1=O)c1cc(C(=O)O)ccc1OC(C)C | 1000 to 10000
38 | CCN(C(=O)n1nnn(-c2c(F)cccc2Br)c1=O)c1ccccc1 | 60 to 250
39 | CCCCCCN(C(=O)n1nnn(-c2ccccc2OC)c1=O)c1cc(C(=O)O)ccc1OC | 250 to 1000
40 | CC(C)N(C(=O)n1nnn(-c2ccccc2Cl)c1=O)C1CCCCC1 | > 10000
41 | COc1ccc(C(=O)O)cc1N(CCCc1ccccc1)C(=O)n1nnn(-c2ccccc2OC)c1=O | 250 to 1000
42 | O=C(O)C1CCN(C(=O)n2nnn(-c3c(Cl)cccc3Cl)c2=O)CC1 | > 10000
43 | CCN(C(=O)n1nnn(-c2c(F)cccc2C(=O)O)c1=O)c1ccccc1Oc1ccccc1 | 1000 to 10000
44 | O=C(N(c1ccccc1)c1ccccc1)n1nnn(-c2c(F)cccc2F)c1=O | 60 to 250
45 | CCN(C(=O)n1nnn(-c2ccccc2OC)c1=O)c1cc(C(=O)O)ccc1Cl | < 60
46 | O=C(O)c1ccc(N(CCc2ccccc2)C(=O)n2nnn(-c3ccccc3)c2=O)cc1 | 250 to 1000
47 | CCN(C(=O)n1nnn(-c2c(Cl)cccc2Cl)c1=O)C1CCC(C(=O)N2CCOCC2)CC1 (stereo not shown) | > 10000
48 | CN(C(=O)n1nnn(-c2c(F)cccc2F)c1=O)c1cccc(Br)c1 | 60 to 250

Row | SMILES | IC50 [nM]
49 | O=C(N1c2ccccc2Sc2ccccc21)n1nnn(-c2c(F)cccc2F)c1=O | < 60
50 | O=C(N1CC[C@](O)(c2ccccc2)[C@@H]2CCCC[C@H]21)n1nnn(-c2c(F)cccc2F)c1=O | 1000 to 10000
51 | CCCCc1ccc(-n2nnn(C(=O)N(CC)C3CCCCC3)c2=O)c(C)c1 | > 10000
52 | COc1cccc(F)c1-n1nnn(C(=O)N(c2cccc(C(=O)O)c2)C2CC2)c1=O | 60 to 250
53 | C=CCN(C(=O)n1nnn(-c2c(F)cccc2F)c1=O)c1ccccc1 | < 60
54 | CCN(C(=O)n1nnn(-c2ccc(Cl)cc2Cl)c1=O)C1CCCCC1 | 1000 to 10000
55 | CCN(C(=O)n1nnn(-c2c(Cl)cccc2Cl)c1=O)C1CCCC(C(=O)OCc2ccccc2)C1 (stereo not shown) | 1000 to 10000
56 | O=C(N1CCCCc2ccccc21)n1nnn(-c2c(F)cccc2Br)c1=O | 250 to 1000
57 | CCCOc1ccc(C(=O)O)cc1N(CC)C(=O)n1nnn(-c2ccccc2OC)c1=O | 250 to 1000
58 | CN(C)N(C(=O)n1nnn(-c2ccccc2Br)c1=O)C1=CCCCC1 | 250 to 1000
59 | O=C(OCc1ccccc1)c1ccc2c(c1)CCCN2C(=O)n1nnn(-c2c(Cl)cccc2Cl)c1=O | 1000 to 10000
60 | COc1ccccc1-n1nnn(C(=O)N(c2ccccc2)c2ccc(C(=O)O)cc2)c1=O | < 60
61 | CCN(C(=O)n1nnn(-c2ccccc2OC)c1=O)c1ccc(C(=O)O)c(OC)c1 | 60 to 250
62 | COc1cccc(F)c1-n1nnn(C(=O)N(C2CCCCC2)C2CCCCC2)c1=O | 1000 to 10000
63 | O=C(N1CCCc2ccccc21)n1nnn(-c2ccccc2Oc2ccccc2)c1=O | 60 to 250
64 | O=C(N1CCCC1)n1nnn(-c2c(Cl)cccc2Cl)c1=O | > 10000
65 | CCN(C(=O)n1nnn(-c2c(F)cccc2F)c1=O)c1ccc(C#CC(C)(C)C)cc1F | 60 to 250
66 | CCN(C(=O)n1nnn(-c2c(Cl)cccc2Cl)c1=O)c1ccc(C(=O)NS(=O)(=O)c2ccccc2)cc1 | 60 to 250
67 | Cc1nonc1NC(=O)CN(C(=O)n1nnn(-c2c(Cl)cccc2Cl)c1=O)C1CCCCC1 | > 10000
68 | CCOC(=O)c1ccc(N(C(=O)n2nnn(-c3c(F)cccc3F)c2=O)N(C)C)cc1 | 60 to 250
69 | CC(=O)NC1CCCN(C(=O)n2nnn(-c3c(Cl)cccc3Cl)c2=O)C1 (stereo not shown) | > 10000
70 | O=CNc1ccc2c(c1)CCCN2C(=O)n1nnn(-c2c(F)cccc2F)c1=O | 60 to 250
